18 compounds from ChEMBL document CHEMBL5143683, “Explorations of novel pyridine-pyrimidine hybrid phosphonate derivatives as aurora kinase inhibitors” (Bioorg Med Chem Lett, 2022) can be followed below.

SMILES strings stand for the structures. pIC50: −log10 of the molar value. Activity calls are given as the source filed them. The rule behind the calls is not given here.

The subject of series [1] is HeLa. As to the kind of experiment: Anticancer activity against human HeLa cells assessed as reduction in cell viability measured after 24 hrs by MTT assay. It counts as functional, cell-based.
The test system of a further series is HL-60. The series is described as follows: Anticancer activity against human HL-60 cells assessed as reduction in cell viability measured after 24 hrs by MTT assay. The format is functional, cell-based. As to conditions: HL-60, 24 h.
In a further series the test system is MCF7. The series is described as follows: Anticancer activity against human MCF7 cells assessed as reduction in cell viability measured after 24 hrs by MTT assay. The format is functional, cell-based. Conditions: MCF7, 24 h.
For series [2], the system named is HepG2. As to the kind of experiment: Anticancer activity against human HepG2 cells assessed as reduction in cell viability measured after 24 hrs by MTT assay. Conditions: HepG2, 24 h. The format is functional, cell-based. In general terms: Tetrazolium assays rely on reduction of a dye to a coloured formazan, in cell work by metabolically active cells.
The next series deals with A549. The series is described as follows: Anticancer activity against human A549 cells assessed as reduction in cell viability measured after 24 hrs by MTT assay. Conditions: A549, 24 h. It counts as functional, cell-based.
In series [3] the test system is HepG2. As to the kind of experiment: Induction of morphological changes in human HepG2 cells assessed as […] at IC50 by inverted microscopy. The format is functional, cell-based.
In series [4] the test system is HepG2. The series is described as follows: Induction of morphological changes in human HepG2 cells assessed as cell shrinkage at IC50 by inverted microscopy. The format is functional, cell-based.
Series [5] is described as follows: Selectivity index, ratio of IC50 for human L02 cells to IC50 for human Hep-G2 cells. As to conditions: L02 cells and Hep-G2 cells, read-out: Ratio IC50. It counts as toxicity.
The target in another series is Aurora kinase B (Homo sapiens, UniProt Q96GD4). The series is described as follows: Inhibition of Aurora B (unknown origin) using kemptide acetate as substrate measured after 30 mins by kinase-glo luminescence assay. (In general: Kinase-Glo reads ATP consumption through a luciferase reaction.)
Sequence of Aurora kinase B (Q96GD4 whole entry): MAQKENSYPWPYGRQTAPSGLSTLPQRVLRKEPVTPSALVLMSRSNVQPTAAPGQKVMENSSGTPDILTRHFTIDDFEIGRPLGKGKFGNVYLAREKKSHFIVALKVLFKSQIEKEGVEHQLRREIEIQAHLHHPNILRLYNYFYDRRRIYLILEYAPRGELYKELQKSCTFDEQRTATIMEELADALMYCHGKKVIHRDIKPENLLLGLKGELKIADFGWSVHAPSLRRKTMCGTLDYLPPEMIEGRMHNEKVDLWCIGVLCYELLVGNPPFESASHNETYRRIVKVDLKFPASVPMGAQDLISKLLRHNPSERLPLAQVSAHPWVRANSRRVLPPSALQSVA
Series [6] concerns HeLa. As to the kind of experiment: Induction of morphological changes in human HeLa cells assessed as reduction in number of viable cells at IC50 by inverted microscopy. The format is functional, cell-based.
Series [7] deals with HeLa. The series is described as follows: Induction of morphological changes in human HeLa cells assessed as […] at IC50 by inverted microscopy. It counts as functional, cell-based.
Series [8] concerns HepG2. As to the kind of experiment: Induction of morphological changes in human HepG2 cells assessed as reduction in number of viable cells at IC50 by inverted microscopy. The format is functional, cell-based.
Series [9] deals with HeLa. The series is described as follows: Induction of morphological changes in human HeLa cells assessed as cell detachment at IC50 by inverted microscopy. It counts as functional, cell-based.
Series [10] can be described thus: Cytotoxicity against human L02 cells assessed as reduction in cell viability measured after 24 hrs by MTT assay. The format is toxicity, cell-based.
Series [11] deals with HeLa. The series is described as follows: Induction of morphological changes in human HeLa cells assessed as cell shrinkage at IC50 by inverted microscopy. The format is functional, cell-based.
The test system of series [12] is HepG2. The series is described as follows: Induction of morphological changes in human HepG2 cells assessed as cell detachment at IC50 by inverted microscopy. It counts as functional, cell-based.
In the next series the target is T1, Aurora kinase A (Homo sapiens, UniProt O14965).
T1 sequence (O14965 whole entry): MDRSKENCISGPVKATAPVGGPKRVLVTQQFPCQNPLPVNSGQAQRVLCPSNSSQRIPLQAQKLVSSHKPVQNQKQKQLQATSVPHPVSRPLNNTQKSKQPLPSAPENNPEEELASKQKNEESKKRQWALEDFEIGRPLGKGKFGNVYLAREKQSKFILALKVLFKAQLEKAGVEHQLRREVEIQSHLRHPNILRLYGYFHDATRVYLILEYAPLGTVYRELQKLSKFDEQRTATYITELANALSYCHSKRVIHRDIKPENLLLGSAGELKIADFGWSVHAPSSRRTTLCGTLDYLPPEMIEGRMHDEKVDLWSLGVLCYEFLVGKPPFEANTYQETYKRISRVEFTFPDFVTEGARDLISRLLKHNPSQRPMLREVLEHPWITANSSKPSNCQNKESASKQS
The series is described as follows: Inhibition of Aurora A (unknown origin) using kemptide acetate as substrate measured after 30 mins by kinase-glo luminescence assay.

In the case of `CCOP(=O)(OCC)C(Nc1ccc(C)c(Nc2nccc(-c3cccnc3)n2)c1)c1ccco1` (stereo not given), the pIC50 – broadly, −log10 of the IC50, conventionally taken in molar units – with HeLa [1] was 5.15; with HL-60 it was 5.42; with MCF7, 5.47; with HepG2 [2] it was 4.72; in the series with A549, 4.80.

Consider `CCOP(=O)(OCC)C(Nc1ccc(C)c(Nc2nccc(-c3cccnc3)n2)c1)c1ccc[nH]1` (stereo not given), for which the outcome with HepG2 [3], with HepG2 [4], in the series on HeLa [6], in the series on HeLa [7], in the series on HepG2 [8] and with HeLa [9] was Active. In addition, the outcome in the series on HeLa [11] and with HepG2 [12] was Active. Further, the pIC50 with HeLa [1] is 5.24; in the series on HL-60, 5.68; at Aurora kinase B, 7.66; with MCF7, 5.80; in the series on HepG2 [2] it was 4.76; in the series on A549, 4.87. Further, at Aurora kinase A, the pIC50 is 7.38. The selectivity ratio in series [5] was 7. Also, the IC50 (as a rule, the concentration that inhibits the measured activity by half) at 24 h in series [10] came out at 95.3 µM.

Turning to `CCOP(=O)(OCC)C(Nc1ccc(C)c(Nc2nccc(-c3cccnc3)n2)c1)c1ccc(Cl)cc1` (stereo not given), the negative-log IC50 (pIC50) in the series on HeLa [1] was 4.92; with HL-60, 5.14; in the series with MCF7, 5.22; in the series with HepG2 [2] it was 4.61; in the series with A549, 4.62.

Consider `CCOP(=O)(OCC)C(Nc1ccc(C)c(Nc2nccc(-c3cccnc3)n2)c1)c1c[nH]c2ccccc12` (stereo not given), for which the pIC50 in the series with HeLa [1] was 5.05; in the series with HL-60 it was 5.31; with MCF7 it was 5.33; in the series on HepG2 [2], 4.70; with A549 it was 4.74.

For the compound `Cc1cc(Nc2cc(N3CCN(C)CC3)nc(Sc3ccc(NC(=O)C4CC4)cc3)n2)n[nH]1` [TOZASERTIB], the pIC50 is 5.20 with HeLa [1]; 5.73 in the series on HL-60; 5.99 in the series on MCF7; 4.74 with HepG2 [2]; 4.82 with A549.

As for `CCOP(=O)(OCC)C(Nc1ccc(C)c(Nc2nccc(-c3cccnc3)n2)c1)c1ccncc1` (stereo not given), the pIC50 in the series with HeLa [1] is 4.74; with HL-60, 5.14; in the series with MCF7, 5.20; with HepG2 [2] it was 4.55; in the series with A549 it was 4.55.

With `CCOP(=O)(OCC)C(Nc1ccc(C)c(Nc2nccc(-c3cccnc3)n2)c1)c1ccsc1` (stereo not given), the pIC50 is 5.15 in the series on HeLa [1]; 5.52 in the series on HL-60; 5.61 with MCF7; 4.73 in the series on HepG2 [2]; 4.80 in the series with A549.

For the compound `CCOP(=O)(OCC)C(Nc1ccc(C)c(Nc2nccc(-c3cccnc3)n2)c1)c1ccc(Cl)c(Cl)c1` (stereo not given), the pIC50 is 4.89 with HeLa [1]; 5.08 with HL-60; 5.15 in the series with MCF7; 4.60 in the series with HepG2 [2]; 4.60 in the series with A549.

As to `CCOP(=O)(OCC)C(Nc1ccc(C)c(Nc2nccc(-c3cccnc3)n2)c1)c1ccc(C)cc1` (stereo not given), the pIC50 in the series with HeLa [1] was 4.97; in the series with HL-60, 5.17; with MCF7, 5.22; in the series on HepG2 [2] it was 4.66; in the series with A549, 4.66.

As to `CCOP(=O)(OCC)C(Nc1ccc(C)c(Nc2nccc(-c3cccnc3)n2)c1)N1CCCCC1` (stereo not given), the pIC50 in the series on HeLa [1] is 4.67; with HL-60 it was 5.09; in the series on MCF7 it was 5.16; in the series with HepG2 [2], 4.47; with A549, 4.49.

Consider `CCOP(=O)(OCC)C(Nc1ccc(C)c(Nc2nccc(-c3cccnc3)n2)c1)c1ccc(OC)cc1` (stereo not given), for which the pIC50 is 4.89 in the series with HeLa [1]; 5.10 with HL-60; 5.19 in the series on MCF7; 4.60 in the series with HepG2 [2]; 4.61 with A549.

As to `CCOP(=O)(OCC)C(Nc1ccc(C)c(Nc2nccc(-c3cccnc3)n2)c1)c1ccc(N)cc1` (stereo not given), the pIC50 in the series on HeLa [1] was 4.99; in the series with HL-60, 5.19; in the series with MCF7, 5.27; with HepG2 [2], 4.67; in the series with A549, 4.67.

As for `CCOP(=O)(OCC)C(Nc1ccc(C)c(Nc2nccc(-c3cccnc3)n2)c1)N1CCOCC1` (stereo not given), the pIC50 in the series on HeLa [1] is 4.69; in the series with HL-60 it was 5.12; in the series with MCF7, 5.17; in the series on HepG2 [2], 4.52; in the series with A549, 4.53.

For `CCOP(=O)(OCC)C(Nc1ccc(C)c(Nc2nccc(-c3cccnc3)n2)c1)c1ccccc1` (stereo not given), the pIC50 was 4.49 with HeLa [1]; 5.04 in the series with HL-60; 5.05 in the series with MCF7; 4.38 in the series with HepG2 [2]; 4.40 in the series on A549.

For `CCOP(=O)(OCC)C(Nc1ccc(C)c(Nc2nccc(-c3cccnc3)n2)c1)c1ccc(O)cc1` (stereo not given), the pIC50 in the series with HeLa [1] is 4.98; with HL-60, 5.22; in the series with MCF7, 5.25; with HepG2 [2], 4.67; in the series with A549, 4.67.

For the compound `CCOP(=O)(OCC)C(Nc1ccc(C)c(Nc2nccc(-c3cccnc3)n2)c1)c1ccn[nH]1` (stereo not given), the pIC50 in the series on HeLa [1] was 5.16; in the series on HL-60 it was 5.52; against Aurora kinase B it was 7.92; in the series with MCF7 it was 5.63; with HepG2 [2] it was 4.73; in the series on A549, 4.82. On Aurora kinase A, this compound gave a pIC50 of 7.82. In addition, the selectivity ratio in [5] was determined as 5.5. For the same compound, the IC50 at 24 h in series [10] turned out to be 83.2 µM.

As for `CCOP(=O)(OCC)C(Nc1ccc(C)c(Nc2nccc(-c3cccnc3)n2)c1)c1scnc1C` (stereo not given), the pIC50 in the series on HeLa [1] was 5.22; with HL-60, 5.63; on Aurora kinase B, 7.82; in the series on MCF7, 5.81; with HepG2 [2] it was 4.74; with A549, 4.86. This compound gave a pIC50 on Aurora kinase A of 7.48. The selectivity ratio in [5] was 5.5. Moreover, the IC50 at 24 h in series [10] amounted to 74.9 µM.

In the case of `CCOP(=O)(OCC)C(Nc1ccc(C)c(Nc2nccc(-c3cccnc3)n2)c1)c1ccc(F)cc1` (stereo not given), the pIC50 in the series with HeLa [1] is 4.91; in the series with HL-60, 5.14; in the series with MCF7 it was 5.21; with HepG2 [2], 4.60; in the series with A549, 4.62.
